Source: patent publication US8552161B2, “Saponin compounds, methods of preparation thereof, use thereof and pharmaceutical compositions” (Uniwersytet W Bialymstoku, priority 2009, dated 2013)

Experiments:
[1] = test system: CEM cells; test: Flow cytometry cell cycle and apoptosis (subG1) analysis; format: cell-based
Experimental: The leukemia cancer CEM cells were trypsinized, seeded in 6 well plates, and immediately incubated with the respective compounds. […] Triton X-100, and 50 μg/ml propidium iodide in PBS. DNA content was assessed with a flow cytometer (Cell Lab Quanta SC—MPL, Beckman Coulter, Calif., USA). In a histogram analysis, distribution of cells into the subG1 (“apoptotic cells”), the G0/G1, S and the G2/M peak was quantified using software MultiCycle AV (Phoenix Flow Systems, CA, USA).

[2] = test system: malignant melanoma cell line G-361; test: Calcein AM cytotoxicity assay, G-361; format: cell-based, human; details: 72 h, means ± SD, three independent experiments in triplicate
Experimental: (§1) Stock solutions (10 mmol/l) of the tested compounds were prepared by dissolving relevant quantity of the substance in DMSO. […] Calcein AM was obtained from Molecular Probes (Invitrogen Corporation, CA, USA).
(§2) All cell lines were cultured in DMEM medium (Sigma, Mo., USA). Medium was supplemented with 10% heat-inactivated fetal bovine serum, 2 mmol/l L-glutamine and 1% penicillin-streptomycin. The cell lines were maintained under standard cell culture conditions at 37° C. and 5% CO2 in a humid environment. Cells were subcultured twice or three times a week using the standard trypsinization procedure.
(§3) All cell lines were cultured in DMEM medium (Sigma, Mo., USA) supplemented with 10% fetal calf serum, 2 mM glutamine, 100 U/ml penicillin and 100 μg/ml streptomycin, at 37° C. in a fully humidified atmosphere containing 5% CO2. Suspensions of these lines (ca. 1.0×10^5 cells/ml) were placed in 96-well microtitre plates and after 3 h of stabilization the tested compounds were added in serially diluted concentrations. Saponins were dissolved in dimethylsulfoxide (DMSO) before addition to cultures. Control cultures were treated with DMSO alone. The final concentration of DMSO in the reaction mixtures never exceeded 0.6%. Four-fold dilutions of the intended test concentration were added at time zero in 20 μl aliquots to the microtitre plate wells. Usually, each test compound was evaluated at six 4-fold dilutions and in routine testing; the highest well concentration was 50 μM, although this varied in a few cases, depending on the test compound. After 72 h of culture, the cells were incubated with Calcein AM solution (Molecular Probes) for 1 h. The fluorescence of viable cells was quantified using a Fluoroscan Ascent instrument (Microsystems).

[3] = test system: cervical carcinoma cell line HeLa; test: Calcein AM cytotoxicity assay, HeLa; format: cell-based; details: 72 h, means ± SD, three independent experiments in triplicate
Experimental: as §1, §2, §3

[4] = test system: lung carcinoma cell line A549; test: Calcein AM cytotoxicity assay, A549; format: cell-based, human; details: 72 h, means ± SD, three independent experiments in triplicate, read-out: IC50, A 549
Experimental: as §1, §2, §3

[5] = test system: leukemia cells (CEM); test: Western blot analysis of apoptosis related proteins; format: cell-based; details: 24 h
Experimental: The cells were seeded in a density 2.2×10^4 cells/cm^2 using culture medium in 100-mm culture dishes. Immediately the cells were treated by novel saponins: 3 (1; 2.5; 5 μM), 6 (0.1; 0.25; 0.5 μM) and 7 (5; 7.5; 10 μM). DMSO was used as a vehicle for controls. After 24 h treatment, the cells were washed three times with cold PBS (10 mM, pH 7.4) and lysed in ice-cold protein extract RIPA buffer (20 mM Tris-HCl, pH 7.4, 5 mM EDTA, 2 mM EGTA, 100 mM NaCl, 2 mM NaF, 0.2% Nonidet P-40, 30 mM PMSF, 1 mM DTT, […] of aprotinin and leupeptin). The lysate was collected into microfuge tube and incubated on ice for 1 h. It was then cleared by centrifugation at 10,000×g for […] at 4° C., and supernatant was collected, aliquoted, and stored at −80° C. Proteins in lysates were quantified by the Bradford method and then diluted with Laemmli electrophoresis buffer. Proteins were then separated on 10% or 12% SDS-polyacrylamide gels, transferred onto nitrocellulose membranes (Bio-Rad Laboratories, CA, USA) and stained with Ponceau S to check equal protein loading. The membranes were blocked with 5% (w/v) non-fat dry milk and 0.1% Tween-20 in PBS for 2 h and probed with the specific primary antibodies overnight. After washing in PBS and PBS with 0.1% Tween-20, the membranes were probed with horseradish peroxidase-conjugated secondary antibodies and visualized with chemiluminescent detection reagent West Pico Supersignal (Thermo Fisher Scientific, Rockford, USA). To confirm equal protein loading, immunodetection was performed with the anti-α-tubulin monoclonal antibody. The experiments were repeated three times. The protein expressions in treated cells were compared to untreated controls.

[6] = test system: T-lymphoblastic leukemia cell line CEM; test: Calcein AM cytotoxicity assay, CEM; format: cell-based; details: Calcein AM assay, 72 h; means ± SD, three independent experiments in triplicate
Experimental: as §1, §2, §3

## C/C=C/C(=O)OC[C@@H](C)[C@@]1(O)[C@@H](O[C@@H]2OC[C@H](O)[C@H](O[C@@H]3OC[C@@H](O)[C@H](O)[C@H]3OC(=O)c3ccc(OC)cc3)[C@H]2OC(C)=O)C[C@H]2[C@@H]3CC=C4C[C@@H](O)CC[C@]4(C)[C@H]3CC[C@@]21C [Compound 7, (20R)-21-O-[(E)-but-2-enoyl]-20-methylpregn-5-ene-3β,16β,17α,21-tetraol 16-O-{2-O-(4-methoxybenzoyl)-β-D-xylopyranosyl-(1→3)-2′-O-acetyl-α-L-arabinopyranoside}]
[1]; CEM cell line after treatment
  subG1 phase of the cell cycle (apoptotic cells): increase in subG1 phase
[1]; CEM cells, 24 h (FIG. 3)
  amount of debris (subG1) compared with untreated controls: 3 fold
[1]; CEM cells, increasing concentrations
  distribution of CEM cells in cell cycle phases (FIG. 2): increased the number of S-phase and G2/M cells with concomitant decrease of G0/G1 cells in dose-dependent manner
[1]; CEM, 24 h, 3 μM
  Apoptosis subG1: 15%
  Cell cycle distribution G0/G1: 14%
  Cell cycle distribution G2/M: 30%
  Cell cycle distribution S: 41%
[2]
  IC50: 890 ± 90 nM
[3]
  IC50: 1940 ± 50 nM
[4]
  IC50: 550 ± 200 nM
[5]; dose-dependent (FIG. 5)
  PARP (Western blot): cleavage of PARP
  antiapoptotic Bcl-2 protein: increased
  caspase-3 (Western blot): accumulation of caspase-3
  expression of tumour suppressor protein p53: enhanced expression
[5]; same concentrations (FIG. 5)
  phosphorylation of pRb S780: increase of phosphorylation of pRb S780
[6]
  IC50: 340 ± 40 nM
